Measurements from the NIST ThermoML archive (doi:10.1016/j.jct.2018.01.024).
Numbers after ± are expanded uncertainties.

Test: mn = molality of the nth substance listed, in mol/kg
Conditions: Liquid, m2 = 0

O [water] + NC(N)=O
Conditions | mass density [kg/m3]
274.15 K, 101 kPa, Vibrating tube method | 999.899 ± 0.084
275.15 K, 101 kPa, Vibrating tube method | 999.94 ± 0.084
276.15 K, 101 kPa, Vibrating tube method | 999.964 ± 0.083
277.15 K, 101 kPa, Vibrating tube method | 999.972 ± 0.096
278.15 K, 101 kPa, Vibrating tube method | 999.964 ± 0.083
278.15 K, 10000 kPa, Constant-volume piezometry | 1004.78 ± 0.18
278.15 K, 25000 kPa, Constant-volume piezometry | 1011.88 ± 0.26
278.15 K, 50000 kPa, Constant-volume piezometry | 1023.2 ± 0.45
278.15 K, 75000 kPa, Constant-volume piezometry | 1033.92 ± 0.66
278.15 K, 100000 kPa, Constant-volume piezometry | 1044.08 ± 0.87
279.15 K, 101 kPa, Vibrating tube method | 999.94 ± 0.083
280.15 K, 101 kPa, Vibrating tube method | 999.901 ± 0.083
281.15 K, 101 kPa, Vibrating tube method | 999.848 ± 0.083
282.15 K, 101 kPa, Vibrating tube method | 999.781 ± 0.083
283.15 K, 101 kPa, Vibrating tube method | 999.699 ± 0.083
288.15 K, 10000 kPa, Constant-volume piezometry | 1003.66 ± 0.18
288.15 K, 25000 kPa, Constant-volume piezometry | 1010.42 ± 0.27
288.15 K, 50000 kPa, Constant-volume piezometry | 1021.21 ± 0.46
288.15 K, 75000 kPa, Constant-volume piezometry | 1031.47 ± 0.67
288.15 K, 100000 kPa, Constant-volume piezometry | 1041.23 ± 0.88
298.15 K, 10000 kPa, Constant-volume piezometry | 1001.46 ± 0.19
298.15 K, 25000 kPa, Constant-volume piezometry | 1007.99 ± 0.28
298.15 K, 50000 kPa, Constant-volume piezometry | 1018.44 ± 0.47
298.15 K, 75000 kPa, Constant-volume piezometry | 1028.38 ± 0.68
298.15 K, 100000 kPa, Constant-volume piezometry | 1037.86 ± 0.88
308.15 K, 10000 kPa, Constant-volume piezometry | 998.36 ± 0.2
308.15 K, 25000 kPa, Constant-volume piezometry | 1004.74 ± 0.29
308.15 K, 50000 kPa, Constant-volume piezometry | 1014.97 ± 0.48
308.15 K, 75000 kPa, Constant-volume piezometry | 1024.71 ± 0.69
308.15 K, 100000 kPa, Constant-volume piezometry | 1034.01 ± 0.89
323.15 K, 101 kPa, Vibrating tube method | 988.03 ± 0.087
323.15 K, 10000 kPa, Constant-volume piezometry | 992.3 ± 0.21
323.15 K, 25000 kPa, Constant-volume piezometry | 998.61 ± 0.3
323.15 K, 50000 kPa, Constant-volume piezometry | 1008.68 ± 0.5
323.15 K, 75000 kPa, Constant-volume piezometry | 1018.27 ± 0.7
323.15 K, 100000 kPa, Constant-volume piezometry | 1027.42 ± 0.91
333.15 K, 101 kPa, Vibrating tube method | 983.191 ± 0.087
